Measured values as given in patent publication US20230146455A1, “TREATMENT OF INFLAMMATORY DISEASES WITH PEPTIDES AND PHARMACEUTICAL COMPOSITIONS” (Yuyu Pharma, Inc., priority 2020, published 2023).
“And” between values parts separate entries of the source, which are not always exact repeats. Equal values may be shown once. Where a SMILES comes first, the peptide text is derived from it. [ ]: non-standard residue; d: D form. Hyp = O=C(O)[C@@H]1C[C@@H](O)CN1

System: MMP-9
Experiment: Example 8 main study Luminex, LPS hPBMCs: MMP-9
Format: cell-based, human
Protocol: Human PBMCs were pretreated with YY-101, YDE-011, YDE-043 or reference compound; Xiidra® at various concentration (ranging from […] to 500 nM) for 2 h before stimulation. An equal volume of 0.5% DMSO was used as a vehicle control. Then, the cells were treated with LPS at 5 ug/ml, which was selected based on the pilot study. The supernatants from treated cells were harvested at 24 h and placed in a 96 well for Luminex cytokine & chemokine profiling using a Luminex 200 multiplex assay (Luminex; R&D system, USA).
The main study arm with triplicate wells per group in a 24-well plate: • 1. Blank • 2. PBMC: 0.5% DMSO • 3. PBMC+LPS (5 ug/ml) • 4. PBMC+YY-101 500 nM • 5. PBMC+YY-101 50 nM • 6. PBMC+YY-101 5 nM • 7. PBMC+YY-101 0.5 nM • 8. PBMC+LPS (5 ug/ml)+Xiidra® 500 nM • 9. PBMC+LPS (5 ug/ml)+Xiidra® 50 nM • 10. PBMC+LPS (5 ug/ml)+Xiidra® 5 nM • 11. PBMC+LPS (5 ug/ml)+Xiidra® 0.5 nM • 12. PBMC+LPS (5 ug/ml)+Xiidra® 0.05 nM • 13. PBMC+LPS (5 ug/ml)+Xiidra® 0.005 nM • 14. PBMC+LPS (5 ug/ml)+YY-101 500 nM • 15. PBMC+LPS (5 ug/ml)+YY-101 50 nM • 16. PBMC+LPS (5 ug/ml)+YY-101 5 nM • 17. PBMC+LPS (5 ug/ml)+YY-101 0.5 nM • 18. PBMC+LPS (5 ug/ml)+YY-101 0.05 nM • 19. PBMC+LPS (5 ug/ml)+YY-101 0.005 nM • 20. PBMC+LPS (5 ug/ml)+YDE-011 500 nM • 21. PBMC+LPS (5 ug/ml)+YDE-011 50 nM • 22. PBMC+LPS (5 ug/ml)+YDE-011 5 nM • 23. PBMC+LPS (5 ug/ml)+YDE-011 0.5 nM • 24. PBMC+LPS (5 ug/ml)+YDE-011 0.05 nM • 25. PBMC+LPS (5 ug/ml)+YDE-011 0.005 nM • 26. PBMC+LPS (5 ug/ml)+YDE-043 500 nM • 27. PBMC+LPS (5 ug/ml)+YDE-043 50 nM • 28. PBMC+LPS (5 ug/ml)+YDE-043 5 nM • 29. PBMC+LPS (5 ug/ml)+YDE-043 0.5 nM • 30. PBMC+LPS (5 ug/ml)+YDE-043 0.05 nM • 31. PBMC+LPS (5 ug/ml)+YDE-043 0.005 nM
Multiplex assay was used to measure 30 cytokines and chemokines. The 1:200 diluted cell supernatant and serial dilution of the standard were dispensed into a 96 well plate at 50 ul/well. Then, the pre-mixed cocktail of antibody-coated magnetic beads was dispensed at 50 ul/well and incubated at room temperature for 2 h in a horizontal orbital microplate shaker at 800±500 rpm. The beads were washed using a magnetic device to prevent loss. The biotin-antibody was dispensed in 50 ul of each well and incubated at room temperature for 1 h in a shaker at 800±500 rpm. After washing, streptavidin-PE was added at 50 ul/well and incubated at room temperature for 30 min in a shaker under the same conditions. Finally, after washing, wash buffer (100 ul/well) was added to the plate and incubated in a shaker for 2 min. The Luminex™ 200 setting were set according to the manufacturer's protocol. The data was calculated with a standard five-parameter logistic nonlinear regression analysis of the data (xPonent software 4.2, USA). Results were presented as concentration (ng/ml or pg/ml).

[1] = PBMC + LPS(5 ug/ml), test article 0.005 nM, Mean
[2] = PBMC + LPS(5 ug/ml), test article 0.005 nM, single replicates
[3] = PBMC + LPS(5 ug/ml), test article 0.05 nM, Mean
[4] = PBMC + LPS(5 ug/ml), test article 0.05 nM, single replicates
[5] = PBMC + LPS(5 ug/ml), test article 0.5 nM, Mean
[6] = PBMC + LPS(5 ug/ml), test article 0.5 nM, single replicates
[7] = PBMC + LPS(5 ug/ml), test article 5 nM, Mean
[8] = PBMC + LPS(5 ug/ml), test article 5 nM, single replicates
[9] = PBMC + LPS(5 ug/ml), test article 50 nM, Mean
[10] = PBMC + LPS(5 ug/ml), test article 50 nM, single replicates
[11] = PBMC + LPS(5 ug/ml), test article 500 nM, Mean
[12] = PBMC + LPS(5 ug/ml), test article 500 nM, single replicates
[13] = PBMC without LPS, test article 0.5 nM, Mean
[14] = PBMC without LPS, test article 0.5 nM, single replicates (1st, 2nd)
[15] = PBMC without LPS, test article 5 nM, Mean
[16] = PBMC without LPS, test article 5 nM, single replicates (1st, 2nd)
[17] = PBMC without LPS, test article 0.05 uM, Mean
[18] = PBMC without LPS, test article 0.05 uM, single replicates (1st, 2nd)
[19] = PBMC without LPS, test article 50 nM, Mean
[20] = PBMC without LPS, test article 50 nM, single replicates (1st, 2nd)
[21] = PBMC without LPS, test article 500 nM, Mean
[22] = PBMC without LPS, test article 500 nM, single replicates (1st, 2nd)

CC(C)C[C@H](NC(=O)CNC(=O)[C@H](CC(C)C)NC(=O)[C@H](CCC(N)=O)NC(=O)CNC(=O)[C@@H]1C[C@@H](O)CN1)C(=O)N[C@@H](C)C(=O)NCC(=O)N1CCC[C@H]1C(=O)N[C@@H](CCCCN)C(=O)O [YDE-011] (H-[Hyp]GQLGLAGPK-OH)
Concentration (pg/ml), MMP-9 [1]: 4251.7 pg/mL | MFI (Bead name: MMP-9) [1]: 29.8 | Concentration (pg/ml), MMP-9 [2]: 4148.1 pg/mL and 4612.9 pg/mL and 3994.2 pg/mL | MFI (Bead name: MMP-9) [2]: 29.5 and 31.0 and 29.0 | Concentration (pg/ml), MMP-9 [3]: 4509.4 pg/mL | MFI (Bead name: MMP-9) [3]: 30.7 | Concentration (pg/ml), MMP-9 [4]: 4612.9 pg/ml (2×) and 4302.5 pg/ml | MFI (Bead name: MMP-9) [4]: 31.0 (2×) and 30.0 | Concentration (pg/ml), MMP-9 [5]: 3435.2 pg/mL | MFI (Bead name: MMP-9) [5]: 27.2 | Concentration (pg/ml), MMP-9 [6]: 3384.2 pg/mL and 3688.0 pg/mL and 3233.2 pg/mL | MFI (Bead name: MMP-9) [6]: 27.0 and 28.0 and 26.5 | Concentration (pg/ml), MMP-9 [7]: 3299.3 pg/mL | MFI (Bead name: MMP-9) [7]: 26.7 | Concentration (pg/ml), MMP-9 [8]: 1907.3 pg/mL and 3688.0 pg/mL and 4302.5 pg/mL | MFI (Bead name: MMP-9) [8]: 22.0 and 28.0 and 30.0 | Concentration (pg/ml), MMP-9 [9]: 2555.4 pg/mL | MFI (Bead name: MMP-9) [9]: 24.2 | Concentration (pg/ml), MMP-9 [10]: 2636.1 pg/mL and 3688.0 pg/mL and 1342.1 pg/mL | MFI (Bead name: MMP-9) [10]: 24.5 and 28.0 and 20.0 | Concentration (pg/ml), MMP-9 [11]: 2776.4 pg/mL | MFI (Bead name: MMP-9) [11]: 24.8 | Concentration (pg/ml), MMP-9 [12]: 4612.9 pg/mL and 931.9 pg/mL and 2784.3 pg/mL | MFI (Bead name: MMP-9) [12]: 31.0 and 18.5 and 25.0

CC(C)C[C@H](NC(=O)CNC(=O)[C@H](CC(=O)O)NC(=O)[C@H](CCC(N)=O)NC(=O)CNC(=O)[C@@H]1C[C@@H](O)CN1)C(=O)N[C@@H](C)C(=O)NCC(=O)N1CCC[C@H]1C(=O)N[C@@H](CCCCN)C(=O)O [YY-101] (H-[Hyp]GQDGLAGPK-OH; N-terminus and C-terminus assumed)
Concentration (pg/ml), MMP-9 [1]: 4617.5 pg/mL | MFI (Bead name: MMP-9) [1]: 31.0 | Concentration (pg/ml), MMP-9 [2]: 3688.0 pg/mL and 4925.2 pg/mL and 5239.4 pg/mL | MFI (Bead name: MMP-9) [2]: 28.0 and 32.0 and 33.0 | Concentration (pg/ml), MMP-9 [3]: 4977.8 pg/mL | MFI (Bead name: MMP-9) [3]: 32.2 | Concentration (pg/ml), MMP-9 [4]: 5239.4 pg/mL and 4925.2 pg/mL and 4768.8 pg/mL | MFI (Bead name: MMP-9) [4]: 33.0 and 32.0 and 31.5 | Concentration (pg/ml), MMP-9 [5]: 5239.4 pg/mL | MFI (Bead name: MMP-9) [5]: 33.0 | Concentration (pg/ml), MMP-9 [6]: 5239.4 pg/mL | MFI (Bead name: MMP-9) [6]: 33.0 | Concentration (pg/ml), MMP-9 [7]: 5138.2 pg/mL | MFI (Bead name: MMP-9) [7]: 32.7 | Concentration (pg/ml), MMP-9 [8]: 5239.4 pg/mL and 4302.5 pg/mL and 5872.9 pg/mL | MFI (Bead name: MMP-9) [8]: 33.0 and 30.0 and 35.0 | Concentration (pg/ml), MMP-9 [9]: 5239.9 pg/mL | MFI (Bead name: MMP-9) [9]: 33.0 | Concentration (pg/ml), MMP-9 [10]: 5239.4 pg/mL and 4925.2 pg/mL and 5555.3 pg/mL | MFI (Bead name: MMP-9) [10]: 33.0 and 32.0 and 34.0 | Concentration (pg/ml), MMP-9 [11]: 5135.8 pg/mL | MFI (Bead name: MMP-9) [11]: 32.7 | Concentration (pg/ml), MMP-9 [12]: 4612.9 pg/mL and 5239.4 pg/mL and 5555.3 pg/mL | MFI (Bead name: MMP-9) [12]: 31.0 and 33.0 and 34.0 | Concentration (pg/ml), MMP-9 [13]: 16511.2 pg/mL | MFI (Bead name: MMP-9) [13]: 66.5 | Concentration (pg/ml), MMP-9 [14]: 12836.1 pg/mL and 20186.4 pg/mL | MFI (Bead name: MMP-9) [14]: 56.0 and 77.0 | Concentration (pg/ml), MMP-9 [15]: 14148.8 pg/mL | MFI (Bead name: MMP-9) [15]: 59.8 | Concentration (pg/ml), MMP-9 [16]: 16823.6 pg/mL and 11474.0 pg/mL | MFI (Bead name: MMP-9) [16]: 67.5 and 52.0 | Concentration (pg/ml), MMP-9 [17]: 17040.0 pg/mL | MFI (Bead name: MMP-9) [17]: 68.0 | Concentration (pg/ml), MMP-9 [18]: 20901.3 pg/mL and 13178.7 pg/mL | MFI (Bead name: MMP-9) [18]: 79.0 and 57.0 | Concentration (pg/ml), MMP-9 [19]: 10636.2 pg/mL | MFI (Bead name: MMP-9) [19]: 49.5 | Concentration (pg/ml), MMP-9 [20]: 11813.2 pg/mL and 9459.2 pg/mL | MFI (Bead name: MMP-9) [20]: 53.0 and 46.0 | Concentration (pg/ml), MMP-9 [21]: 11140.0 pg/mL | MFI (Bead name: MMP-9) [21]: 51.0 | Concentration (pg/ml), MMP-9 [22]: 10126.8 pg/mL and 12153.3 pg/mL | MFI (Bead name: MMP-9) [22]: 48.0 and 54.0

CC(C)C[C@H](NC(=O)[C@H](CCC(N)=O)NC(=O)CNC(=O)[C@@H]1C[C@@H](O)CN1)C(=O)NCC(=O)O [YDE-043] (H-[Hyp]GQLG-OH; N-terminus and C-terminus assumed)
Concentration (pg/ml), MMP-9 [1]: 5247.2 pg/mL | MFI (Bead name: MMP-9) [1]: 33.0 | Concentration (pg/ml), MMP-9 [2]: 3994.2 pg/mL and 5555.3 pg/mL and 6192.0 pg/mL | MFI (Bead name: MMP-9) [2]: 29.0 and 34.0 and 36.0 | Concentration (pg/ml), MMP-9 [3]: 3943.4 pg/mL | MFI (Bead name: MMP-9) [3]: 28.8 | Concentration (pg/ml), MMP-9 [4]: 3994.2 pg/mL and 4148.1 pg/mL and 3688.0 pg/mL | MFI (Bead name: MMP-9) [4]: 29.0 and 29.5 and 28.0 | Concentration (pg/ml), MMP-9 [5]: 3536.4 pg/mL | MFI (Bead name: MMP-9) [5]: 27.5 | Concentration (pg/ml), MMP-9 [6]: 3688.0 pg/ml (2×) and 3233.2 pg/ml | MFI (Bead name: MMP-9) [6]: 28.0 (2×) and 26.5 | Concentration (pg/ml), MMP-9 [7]: 3842.1 pg/mL | MFI (Bead name: MMP-9) [7]: 28.5 | Concentration (pg/ml), MMP-9 [8]: 4302.5 pg/mL and 3688.0 pg/mL and 3535.8 pg/mL | MFI (Bead name: MMP-9) [8]: 30.0 and 28.0 and 27.5 | Concentration (pg/ml), MMP-9 [9]: 3892.8 pg/mL | MFI (Bead name: MMP-9) [9]: 28.7 | Concentration (pg/ml), MMP-9 [10]: 3688.0 pg/ml (2×) and 4302.5 pg/ml | MFI (Bead name: MMP-9) [10]: 28.0 (2×) and 30.0 | Concentration (pg/ml), MMP-9 [11]: 4100.4 pg/mL | MFI (Bead name: MMP-9) [11]: 29.3 | Concentration (pg/ml), MMP-9 [12]: 3688.0 pg/ml (2×) and 4925.2 pg/ml | MFI (Bead name: MMP-9) [12]: 28.0 (2×) and 32.0
